Data as given in US8163770B2, “Benzoxathiin derivative” (MSD. K. K., priority 2005, dated 2012).
Read-outs that look alike come from different tables or passages of the source.

Tests used:
[1] = biological target: T1, histamine-H3 receptor (Rattus norvegicus, UniProt Q9QYN8); assay: Test for antagonistic effect to water-drinking action induced by histamine-H3 receptor selective agonist, R-α-methylhistamine; format: in vivo; settings: 10 mg/kg oral, 2 hours before R-α-methylhistamine, water drunk for 1 hour
T1 construct: from tissue; host or cells: living male rat
T1 sequence (Q9QYN8 whole entry): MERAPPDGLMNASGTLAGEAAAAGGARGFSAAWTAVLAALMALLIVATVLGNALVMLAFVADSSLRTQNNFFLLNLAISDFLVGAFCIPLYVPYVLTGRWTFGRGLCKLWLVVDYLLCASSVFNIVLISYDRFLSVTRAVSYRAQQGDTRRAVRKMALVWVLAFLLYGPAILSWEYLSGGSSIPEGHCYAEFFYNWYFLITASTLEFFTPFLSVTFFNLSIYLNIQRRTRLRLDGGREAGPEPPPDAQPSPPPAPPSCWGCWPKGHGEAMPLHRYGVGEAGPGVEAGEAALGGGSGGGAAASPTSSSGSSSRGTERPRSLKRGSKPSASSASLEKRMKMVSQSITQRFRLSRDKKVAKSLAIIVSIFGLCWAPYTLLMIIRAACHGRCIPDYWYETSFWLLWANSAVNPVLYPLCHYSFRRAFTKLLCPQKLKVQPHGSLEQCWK
Protocol: Under anesthesia with ketamine xylazine (74 and 11 mg/kg intraabdominal single administration), a brain stereotaxic device was set in the third ventricle of a male DS rat (7 to 10-week age, 200 to 300 g), and a chronic guide cannula (26 gauge, length 11 mm) was inserted into it and fixed with a dental resin. The position of the tip of the guide cannula is at 2.2 mm after the bregma on the midline, and at a depth of 8 mm from the surface of the skull. After a restoration term of about 1 week, R-α-methylhistamine (0.3 μg/1 μL/head, 30% propylene glycol liquid) was administered into the third ventricle. The test compound suspended in an aqueous 0.5% methyl cellulose solution was orally administered to the rat before 2 hours before the R-α-methylhistamine administration; and after the R-α-methylhistamine administration, the amount of water drunk by the rat for 1 hour was measured.

[2] = Test for brain/cerebrospinal fluid transition; format: in vivo; settings: SD male rat, 2 hours after oral administration (10 mg/kg)
Protocol: The test compound was orally or intravenously administered to an SD male rat (7 to 10-week age, 200 to 400 g), and under anesthesia with ether for a predetermined period of time, the whole blood was collected from it through the abdominal aorta thereof using a heparin-processed syringe. Next, the head skin was cut, and a dental 30 G needle was stuck into the cervical spine to run through the subarachnoid cavity. Via a tube connected to the dental 30 G needle, from 50 to 100 μL of the cerebrospinal fluid was collected in a 1-mL syringe, and then the brain was taken out. The blood sample was centrifuged (4° C., 6000 revolutions, 10 minutes), and the resulting plasma was stirred with ethanol (containing an internal standard substance) in an amount of three times thereof added to it. The brain sample was homogenized with 2 mL of water added thereto; and a part of it was taken out and stirred with ethanol (containing an internal standard substance) in an amount of three times thereof added to it. The cerebrospinal fluid was stirred with ethanol (containing an internal standard substance) in an amount of three times thereof added to it. The above samples were left at −20° C. for 20 minutes, then centrifuged (4° C., 12,000 g, 10 minutes), and the supernatant was analyzed through LC/MS/MS. According to a relative calibration curve method, the compound concentration in the plasma, in the brain and in the cerebrospinal fluid was determined.

## C[C@H]1[C@H](c2ccc(OCCCN3CCCC3)cc2)Oc2ccccc2S1(=O)=O (single isomer, unassigned) [(2S*,3S*)-2,3-dihydro-3-methyl-2-[4-[3-(1-pyrrolidinyl)propoxy]phenyl]-1,4-benzoxathiin-4,4-dioxide]
[1]
  inhibition of the increase in the water drinking induced by R-α-methylhistamine in the third ventricle: significantly inhibited
[2]
  concentration in the brain: 6.96 nmol/g
[2]; cerebrospinal fluid, read-out: concentration in the cerebrospinal fluid
  concentration at 2 h: 174 nM
[2]; plasma, read-out: concentration in the plasma
  concentration at 2 h: 980 nM
